The values that follow come from article PMC11215077, “Antiviral activity of temporin-1CEb analogues against gingival infection with herpes simplex virus type 1” (Frontiers in Oral Health, 2024).

Series [1] concerns HSV-1. As to conditions: concentration reducing viral replication by 50%; TIGKs cells pre-treated, infected and cultivated with compound; qPCR; mean of two independent experiments. For orientation: In qPCR the cycle at which signal appears reflects the starting amount.
Description: Data were expressed as means ± SD. Statistical significance was determined using unpaired t-test, one-way ANOVA, and/or two-way ANOVA for direct comparisons between single groups. A p-value <0.05 was considered statistically significant. We used GrapPad Prism 10 software for the analyses. […]
Series [2] deals with HSV-1. Also on record: method as in PMID 29483113. As to conditions: different model of epithelial cells; cited from earlier work. The source says: In our studies, we initially utilized the Vero E6 cell line, which has been a long-standing choice in herpesviruses research ([40], [41]).
Series [3] concerns HSV-1. In words: Antiviral activity in 3D organotypic model of human gingiva (OTG). Format: cell-based, herpes simplex virus type 1. The note with it: 15 μg/ml; H&E stained sections; Figure 5A. How it is done:
Protocol was described previously ([34]). Briefly, to prepare 3D cultures, 150,000 gingival fibroblasts suspended in 10% FBS in DMEM were mixed with 2.4 ml of ice-cold Matrigel® (Corning) (final concentration 7 mg/ml) and placed in the middle of 12-well cell culture inserts (Greiner). Three days later, 1 × 10^6 TIGK cells suspended in EPM1 were added to the top of the insert. On the ninth day after the start of the procedure, the old culture medium was removed and EPM2 was added to the bottom of the insert. The epithelial layer on the top was exposed to the air, which promotes epithelial differentiation and then stratification. About 8–10 days after air-liquid interphase, 3D cultures of gingiva were used for further experiments.
The apical surface of OTG model was washed three times with PBS and then inoculated with 100 μl of viral stock (TCID50 400 /ml) in the presence of DAL-PEG-LK6 or CPP1-PEG-LK6 (15 μg/ml) for 2 h at 4°C. Following incubation, the unbound HSV-1 was removed by washing with PBS for 10 min at 37°C, and the OTG cultures were maintained at an air-liquid interface for the rest of the experiment. To determine viral yield, 120 μl of PBS was applied to the apical surface of the OTG, and harvested for DNA isolation after 10 min of incubation at 37°C.
Briefly, cell inserts were fixed in 10% formaldehyde at 4°C for 1 h. After embedding in paraffin, 3D cultures were cut into 5 μm sections and stained with H&E solution. For immunohistochemical analysis, slides were incubated for 1 h at room temperature in blocking buffer (5% normal goat serum, 0.1% saponin in PBS) and stained with primary antibodies anti-HSV-1 (1:100, 1% normal goat serum, 0.1% saponin in PBS; Abcam) and secondary antibodies: goat anti-rabbit conjugated with Alexa Fluor 488 (1:2000; Cell Signaling). Finally, cell nuclei were stained with ProLong Antifade Mounting Medium with DAPI. Slides were visualized with EVOS FL Cell Imaging System (Thermo Fisher Scientific).
(§1) Viral DNA was isolated from the conditioned media or the apical washes of inserts (OTG model) using Viral DNA/RNA Isolation Kit (A&A Biotechnology). The virus yield assessed by quantitative real-time PCR (qPCR). The reaction was carried out in a CFX96 Touch Real-Time PCR Detection System (Bio-Rad), in a 10 μl reaction mixture consisting of TaqMan^TM Fast Advanced Master Mix, TaqMan^TM Microbe Detection assay against HSV-1 (Vi04230116_s1) and 1 μl of viral DNA. The temperature profile was 10 s at 95°C, followed by 40 cycles of 3 s at 95°C and 20 s at 60°C. DNA quantification standards were prepared. In summary, a fragment of viral DNA was amplified using the primers listed above and cloned into the pTZ57R/T plasmid using the InsTAclone PCR cloning kit. The plasmid was propagated in E. coli, purified with the GeneJet Plasmid Miniprep Kit, and digested with the EcoR1 restriction enzyme. The number of copies per mL was estimated after the concentration of linearized DNA was assessed spectrophotometrically.

A short description of series [4]: Analytical RP-HPLC retention time. As to conditions: Phenomenex Jupiter 4 μ Proteo 90 Å, 250 × 4.60 mm, listed as basic physicochemical characteristic. The protocol:
The synthesized compounds were then purified by reverse-phase high-performance liquid chromatography (RP-HPLC) on a Waters system (Phenomenex Jupiter 4 μ Proteo 90 Å column, 250 × 10 mm). A linear gradient from 10% to 80% of solvent B over 60 min (Solvent A: 0.1% TFA in water; Solvent B: 80% acetonitrile in Solvent A) was employed with a flow rate 5 ml/min. The homogeneity of the final peptide fractions was analyzed using a Shimadzu HPLC System (Shimadzu Europe GmbH, Duisburg, Germany) equipped with a Phenomenex Jupiter 4 μ Proteo 90 Å column, 250 × 4.60 mm. The mass spectra of the synthesized peptides were recorded using a Biflex III MALDI-TOF mass spectrometry (Bruker, Mannheim, Germany) with α-cyano-4-hydroxy-cinnamic acid (CCA) or 2,5-dihydroxybenzoic acid (DHB) used as the matrix.

The test system of series [5] is HSV-1. Nature of the series: Virus inhibition (replication) assay in Vero E6 and TIGKs cells, qPCR, titration, gB Western blot. Format: cell-based, herpes simplex virus type 1. The note with it: 48 h p.i. How it is done:
HSV-1 stocks were generated by infecting Vero E6 cells. Cells were lysed at 48 h p.i. by two freeze-thaw cycles. The virus containing fluid was aliquoted and stored at −80°C. A control Vero E6 cell lysate from mock-infected cells was prepared in the same manner as the virus stock. Virus yield was assessed by virus titration on fully confluent Vero E6 cells in 96-well plates, according to the method of Reed & Muench ([32]). Plates were incubated at 37°C for 48 h and the occurrence of a cytopathic effect was scored using an inverted microscope, and TCID50 (50% tissue culture infection dose) was calculated.
Vero E6 or TIGKs cells were seeded in 12-well plates and cultured for 48 h. […] After 30 min of incubation at 37°C, cells were infected with HSV-1 at TCID50 400 /ml or treated with mock. After 2 h of infection at 37°C, unbound viral particles were removed by washing with PBS, and culture media supplemented with peptide conjugates were applied. Following 48 h of incubation, media were collected, and the quantity of HSV-1 DNA copies was assessed using titration and qPCR.
as §1
Protein extracts were prepared using lysis buffer (0.25% Na-deoxycholate, 0.5% Nonidet P-40, 0.05% SDS, protease inhibitor mixture, 2.5 mM EDTA in PBS), and the protein concentration was assessed using Pierce BCA (Thermo Fisher) protein assay kit. Equal amounts of cell extracts were separated on 10% SDS-PAGE gel and electrotransferred onto polyvinylidene difluoride membranes for gB and β-actin in transfer buffer (25 mM Tris, 0.2 M glycine, and 20% ethanol) for 90 min at 100 V. Nonspecific binding sites were blocked for 90 min in 5% skimmed milk prepared in TBST buffer (20 mM Tris, pH 7.5, 0.5 M NaCl, 0.05% Tween 20). Membranes were further incubated overnight at 4°C with primary antibodies: mouse anti-HSV-1 + HSV-2 gB (1:5000; abcam) and mouse anti-β-actin (1:4,000; BD Biosciences). The following day, membranes were washed three times with TBST buffer and incubated with HRP-conjugated secondary antibodies for 60 min at 37°C: goat anti-mouse IgG (1:20,000; β-actin; BD Bioscience) or sheep anti-mouse IgG (1:50,000; gB; Sigma Aldrich). Next, blots were washed five times for 5 min in TBST buffer, developed using Luminata Cresecendo Substarte (Merck) and exposed to AGFA medical x-ray film. Densitometry analysis was performed using ImageJ 1.52q software.

As usually defined, the IC50 is the concentration that inhibits the measured activity by half.

In brackets after ≈: the same amount, converted by molar mass. Read-outs that look alike come from different tables or passages of the source. Square brackets hold non-standard residues; d marks the D form. Peptide text beside a SMILES is read from it. AEEA = NCCOCCOCC(=O)O

Description for in vitro: The viability of Vero E6 and TIGKs cells was examined by the XTT Cell Viability Assay kit (Biological Industries, USA). Briefly, cells were treated with indicated concentrations of the peptide conjugates for 48 h at 37°C. Next, the fresh medium was added to the cells and 50 μl of the activated XTT reagent [2,3-bis(2-methoxy-4-nitro-5-sulphenyl)-2H-tetrazolium-5-carboxanilide] was added and further incubated for 2 h at 37°C. Absorbance was measured at a wavelength of 480 nm using FlexStation 3 microplate reader (Molecular Device, Wokingham, UK). The results were expressed normalized against a control of untreated cells (100% viability). To assess the effect of peptide conjugate on the integrity of the plasma membrane, the LDH release assay was performed using the CytoTox96 nonradioactive cytotoxicity assay kit (Promega, Madison, WI, USA) according to the manufacturer's instructions. Cytotoxicity was calculated with the formula: % cytotoxicity = 100 × (experimental LDH release/ maximum LDH release), where maximum LDH release is after lysis solution addition (Triton X-100). Relative amounts of LDH release were measured (absorbance at 490 nm) using FlexStation 3 microplate reader (Molecular Device, Wokingham, UK). […]
Data were expressed as means ± SD. Statistical significance was determined using unpaired t-test, one-way ANOVA, and/or two-way ANOVA for direct comparisons between single groups. […]

In “in vitro”, `CC[C@H](C)[C@H](NC(=O)COCCOCCNC(=O)[C@H](CCCNC(=N)N)NC(=O)[C@H](CC(C)C)NC(=O)[C@H](Cc1ccccc1)NC(=O)CNC(=O)[C@@H](C)NC(=O)[C@@H](N)Cc1ccc(O)cc1)C(=O)N[C@@H](CCCCN)C(=O)N[C@@H](CCCCN)C(=O)N[C@H](C(=O)N[C@@H](CC(C)C)C(=O)N[C@@H](CO)C(=O)N[C@@H](CCCCN)C(=O)N[C@H](C(=O)N[C@@H](CCCCN)C(=O)N[C@@H](CCCCN)C(=O)N[C@@H](CC(C)C)C(=O)N[C@@H](CC(C)C)C(=O)N[C@@H](CCCCN)C(N)=O)[C@@H](C)CC)[C@@H](C)CC` [DAL-PEG-LK6] (H-Y[dA]GFLR[AEEA]IKKILSKIKKLLK-NH2) came in with a CC50 at 48 h of 33.8 µg/mL (≈ 14.1 µM). Moreover, the 50% inhibitory concentration (IC50) with HSV-1 [1] was 3.699 µg/mL (≈ 1.54 µM). temporin B: the IC50 with HSV-1 [2] was 93 µg/mL. With `CC[C@H](C)[C@H](NC(=O)COCCOCCNC(=O)[C@H](CCCNC(=N)N)NC(=O)[C@H](CC(C)C)NC(=O)[C@H](Cc1ccccc1)NC(=O)CNC(=O)[C@@H](C)NC(=O)[C@@H](N)Cc1ccc(O)cc1)C(=O)N[C@@H](CCCCN)C(=O)N[C@@H](CCCCN)C(=O)N[C@H](C(=O)N[C@@H](CC(C)C)C(=O)N[C@@H](CO)C(=O)N[C@H](CCCCN)C(=O)N[C@H](C(=O)N[C@@H](CCCCN)C(=O)N[C@@H](CCCCN)C(=O)N[C@@H](CC(C)C)C(=O)N[C@@H](CC(C)C)C(N)=O)[C@@H](C)CC)[C@@H](C)CC` [DAL-PEG-DK5] (H-Y[dA]GFLR[AEEA]IKKILS[dK]IKKLL-NH2), in the series on HSV-1 [3], the “morphology of epithelial cells in OTG (H&E)” value is “no changes in the morphology of epithelial cells”.

For “RKKRRQRRR-O2Oc-IKKILSKIKKLLK-NH2 [CPP2-PEG-LK6, conjugate of cationic cell-penetrating peptide (HIV-1 TAT49–57 fragment) with LK6 via PEG linker]”, the Rt in series [4] is recorded as 20.094. For the same compound, the “reduction in viral yield in the qPCR test” value in the series with HSV-1 [5] (Figure 1C, Vero E6 (DAL-PEG-LK6 and CPP1-PEG-LK6 25 μg/ml; CPP2-PEG-LK6 10 μg/ml) and TIGKs cells (15 μg/ml)) is listed as 1 log. Further, the “reduction of virus replication in titration assay” value with HSV-1 [5] (Figure 1D, both cell models (Vero E6, TIGKs), normalized to untreated control) worked out at 97%.
